According to patent US20090312380A1, “NOVEL COMPOSITIONS AND METHODS” (priority 2006, published 2009):

Experiments:
Type in all cases: physicochemical
[1] = BET nitrogen adsorption analysis, total specific surface area; conditions: for Specific Surface Area (nitrogen): BET nitrogen adsorption model, 77.3K
Description: (§1) The D values represent particle size medians from the detected particle size distribution curves. D(v, x) means that 100x % of particles are smaller than the corresponding D value, and 100-100x % of particles are larger. The samples were also subjected to the Brunauer-Emmett-Teller (BET)-nitrogen adsorption analysis to determine the total surface area of the samples as follows:
Approximately 0.2-0.5 g of material (accurately weighed) was loaded into a surface area analyser glass tube fitted with a glass rod in order to minimise the overall free space. The sample was then outgased under vacuum at 30° C. for several hours. Upon completion of the outgas step, the sample tube was removed from the analyser and backfilled with helium to avoid refilling with air from the surrounding environment. The sample tube was reweighed in order to calculate the amount of dry sample used during the analysis step. The analyser tube was then loaded into the surface area analyser, and free space analysis was then conducted in order to account for the free volume in the tube and thus accurately measure the quantity of gas adsorbed directly on the powder surface. Nitrogen gas adsorption measurement was executed in a liquid nitrogen filled dewar at 77.3K. BET multipoint surface area determination was performed in the partial pressure range p/po=0.1-0.3 with 5 data points. Specific surface area calculation was performed by linear regression analysis of data according to the BET equation.

[2] = Water surface area from GVS data, BET model; conditions: for Water Surface Area (WSA): BET adsorption model, GVS adsorption runs; for water surface area (ranking): Table 6, compared to samples B or C; for surface hydrophilicity group predicted from the WSA data: WSA data of Table 6 (ESW and BET); for number of hydrophilic domains: from ESW and BET water surface areas and GVS results; for WSA compared with SSA: water surface area versus specific surface area (nitrogen)
Description: The multilayer sorption model according to Brunauer, Emmet and Teller Journal of the American Chemical Society, vol. 60, pp. 309, 1938) is described as follows:
with: n=number of moles adsorbed at p/p, (=RH/100) • nmono=apparent number of moles adsorbed in monolayer • p/ps=gas partial pressure (=RH/100 in the GVS experiments) • C=BET constant (measure for the strength of the sorption interaction)
From the sorption kinetics, the equilibrium weight changes at the end of each RH stage are extracted to compile xy-data pairs (RH vs. adsorbed amount).
From this, a plot of [p/ps]/[n(1−p/ps)] versus p/ps should give a linear correlation with intercept b=1/[C(nmono)] and slope m=b(C−1).
Evaluation is done by using 5-7 data points (RH vs. adsorbed amount) in the RH range 5-30% RH, which are then used for linear regression to obtain the intercept b and slope m (as explained above). The data is considered acceptable, if the correlation coefficient (r^2) of the linear regression is >0.95, although a correlation coefficient of ≧0.99 should be obtainable for most data sets. From slope and intercept, one can calculate the BET constant C and apparent monolayer amount nmono.
The calculated monolayer coverage nmono obtained from the application of the gas sorption models to GVS data can be re-calculated to water surface area Awater, taking into account the mean cross sectional area aH2O occupied by one water molecule upon adsorption:
with: Awater=water surface area [m^2/g] • aH2O mean cross sectional area of one water molecule adsorbed 10^−19 m^2/molecule • nmono=apparent amount adsorbed in the monolayer [mol] • NL=Lochschmidt number=6×10^23 molecules/mol • mdry (sample)=dry mass of sample [g]
The determination of the BET water surface area is illustrated for sample A as follows. From the relative humidity data and the mass difference, p/ps and [p/ps]/[n(1−p/ps)] were calculated to give the values shown in Table 4.
A plot of p/ps versus [p/ps]/[n(1−p/ps)] was then generated (see FIG. 2) allowing the slope (m=26.726) and the intercept (b=3.8219) to be calculated. Using the equations b=1/[C(nmono)] and m=b(C−1), the apparent monolayer amount, n^mono, was calculated to equate to 0.0327 mg. This in turn led to a WSA of 5.9 m^2/g, using equation (A4) above, wherein mdry=18.57 mg.

[3] = Particle size profile of irbesartan samples; conditions: for D (v, 0.1) particle size: 10 % of particles smaller; for D (v, 0.5) particle size: 50 % of particles smaller; for D (v, 0.9) particle size: 90 % of particles smaller
Experimental: as §1, with “The particle size profile of samples A-D of irbesartan were tested (see Table 1). It can be seen that across the range the particle sizes were very similar. Thus any difference in dissolution kinetics of samples from the relevant batch cannot be attributed to particle size. The D” for “The D”, “as follows: […]” for “as follows:”

Specific Surface Area (nitrogen) [1]	Water Surface Area (WSA) [2]	Water Surface Area (WSA) ([2]; listed as sample A)	apparent monolayer amount nmono ([2]; BET model, mdry=18.57 mg)	water surface area (ranking) [2]	surface hydrophilicity group predicted from the WSA data [2]	WSA compared with SSA [2]	D (v, 0.1) particle size [3]	D (v, 0.5) particle size [3]	D (v, 0.9) particle size [3]	specific surface area (ranking among samples A-D) ([1]; BET nitrogen adsorption)	Structure (SMILES)	number of hydrophilic domains [2]
5.17 m^2/g	5.9 m^2/g	5.9 m^2/g	0.0327 mg	largest water surface areas	relatively hydrophilic	greater than the SSA	1 μm	3 μm	12 μm	–	CCCCC1=NC2(CCCC2)C(=O)N1Cc1ccc(-c2ccccc2-c2nnn[nH]2)cc1 [Sample A, irbesartan]	approximately twice the number of hydrophilic domains
6.16 m^2/g	3.2 m^2/g	–	–	–	relatively hydrophobic	–	1 μm	3 μm	17 μm	greatest specific surface area	CCCCC1=NC2(CCCC2)C(=O)N1Cc1ccc(-c2ccccc2-c2nnn[nH]2)cc1 [Sample B, irbesartan]	approximately a similar number of hydrophilic domains as each other
3.16 m^2/g	3.6 m^2/g	–	–	–	relatively hydrophobic	greater than the SSA	1 μm	5 μm	13 μm	–	CCCCC1=NC2(CCCC2)C(=O)N1Cc1ccc(-c2ccccc2-c2nnn[nH]2)cc1 [Sample C, irbesartan]	approximately a similar number of hydrophilic domains as each other
4.29 m^2/g	6.5 m^2/g	–	–	largest water surface areas	relatively hydrophilic	greater than the SSA	1 μm	3 μm	7 μm	–	CCCCC1=NC2(CCCC2)C(=O)N1Cc1ccc(-c2ccccc2-c2nnn[nH]2)cc1 [Sample D, irbesartan]	approximately twice the number of hydrophilic domains
